In the NIST ThermoML archive (doi:10.1021/je700036v) one finds refractive index data, which are given here for three molecules.

± gives the expanded uncertainty stated by the source.

A short description of this series: refractive index (Na D-line) (dimensionless). As to conditions: 293.1 K; 101.33 kPa; Liquid; Standard Abbe refractometry.

As a reminder, the refractive index is a measure of how strongly the sample bends light. As for `CC1CCCCC1` [methylcyclohexane], the refractive index was determined as 1.423 ± 0.0007. With `Cc1ccccc1` [toluene] the figure was 1.4873 ± 0.0007; with `O=CN1CCOCC1` [N-formylmorpholine], 1.484 ± 0.0007.
